Earlier results on one compound are cited in US20240000809A1, “IMPROVED USE OF CANNABINOIDS IN THE TREATMENT OF EPILEPSY” (ORCOSA INC., priority 2020, published 2024).

Structures are written as SMILES.

The conditions of the data set: ingested orally, extensive first pass metabolism.

Take `C=C(C)[C@@H]1CCC(C)=C[C@H]1c1c(O)cc(CCCCC)cc1O` [CBD, cannabidiol]: the bioavailability (usually the share of a dose that reaches the circulation, judged against a reference dose that is usually intravenous) is reported as 6 to 11%.
